Data as given in patent US20220000870A1, “TREATMENT OF CANCER” (MingSight Pharmaceuticals, Inc., priority 2016, published 2022).

Assays:
Human PKC delta = Human PKC delta (Homo sapiens, UniProt Q05655); test: Inhibition of PKC isoforms, in vitro assay; type: biochemical
Excerpt: The methods for these determinations have been described (Grant, et al. 2010, Eur J Pharmacol. 627:16-25).

HBL1 cells [1] = test: IL-6 assay (ELISA of supernatant); type: cell-based; settings: CD79 mutant, 48 hours, data not shown
OCI-Ly3 cells [2] = test: Cell proliferation and survival assay (MTT); type: cell-based; settings: 96 hours
Protocol: (§1) TMD8 cells were grown in MEM media supplemented with 10% fetal calf serum (FCS), non-essential vitamin mix, and penicillin-streptomycin antibiotics (pen-strep). HBL1 cells were grown in RPMI-1640 media supplemented with 10% FCS and pen-strep. OCI-Ly3 cells were grown in DMEM media with 15% FCS, non-essential vitamin mix, pen-strep, and 25 mM HEPES buffer. Cells were maintained in suspension culture, fed twice weekly, and split 1:3 approximately every two weeks (TMD8, OCI-Ly3) or weekly (HBL1). Cells were cultured and maintained as described above, with cells always fed on the day prior to assay. Proliferation and survival of cells was quantified using an MTT assay kit according to manufacturer's instructions (Cell Proliferation Kit 1, Roche Diagnostics, Cat. No. 11 465 007 001). Experiments were performed in the same media used by each cell type for growth and maintenance. Cells (5×10^4) were plated in 96 well plates and allowed to grow for 96 hours in the presence of inhibitors. After the exposure period was completed, MTT reagent was added for 3-4 hours. The MTT solubilization reagent was then added to stop the reaction and cells were incubated overnight at 37° C. The plate read the next day according to the kit instructions.

TMD8 cells [3] = test: Cell proliferation and survival assay (MTT); type: cell-based; settings: for Inhibition of cell proliferation and survival: TMD8 cells, MTT, 96 hours
Protocol: as §1

circulating lymphocytes = test: Peripheral lymphocyte levels, multiple ascending dose study; type: in vivo, human; settings: healthy humans, 50, 100, 150, 200 mg BID, 14 days
Protocol: Normal, healthy human patients received various doses of Compound A for 14 days of dosing. The dose levels were as follows: cohort 1: 50 mg, BID; cohort 2: 100 mg, BID; cohort 3, 150 mg, BID; and cohort 4, 200 mg BID.

TMD8 cells [4] = test: Mouse xenograph model of DLBCL; type: in vivo, SCID mice
Protocol: To test the efficacy of Compound A in vivo, TMD8 cells were grown and subcutaneously injected into SCID mice. Large scale suspension culture of TMD8 cells was performed in T250 flasks, where cells were expanded weekly. Animals (n=24) were inoculated with 10×10^6 cells (10×10^6 cells in 100 μL volume of 50% Matrigel®) subcutaneously in the animal's right flank.

HBL1 cells [5] = test: Cell proliferation and survival assay (MTT); type: cell-based; settings: 96 hours, data not shown
OCI-Ly3 cells [6] = test: IL-6 assay (ELISA of supernatant); type: cell-based; settings: OCI-Ly3 cells lacking activating CD79 mutations, 48 hours
Protocol: (§2) TMD8 cells were grown in MEM media supplemented with 10% fetal calf serum (FCS), non-essential vitamin mix, and penicillin-streptomycin antibiotics (pen-strep). HBL1 cells were grown in RPMI-1640 media supplemented with 10% FCS and pen-strep. OCI-Ly3 cells were grown in DMEM media with 15% FCS, non-essential vitamin mix, pen-strep, and 25 mM HEPES buffer. Cells were maintained in suspension culture, fed twice weekly, and split 1:3 approximately every two weeks (TMD8, OCI-Ly3) or weekly (HBL1).
(§3) Cells were harvested via centrifugation and resuspended twice to rinse the media of any IL-6. Cells were then plated in 96 well plates at 5×10^5 cells per well and exposed to increasing concentrations of Compound A, sotrastaurin, or media containing 0.1% DMSO (negative control). For each cell type, experiments were performed in the media used for growth and maintenance. Cells were allowed to grow for 48 hours after plating in the presence of inhibitors. Following compound exposure, cells were pelleted in the 96 well plate, supernatant was removed, and the concentration of IL-6 in the supernatant was determined using R&D Systems Haman IL-6 Quantikine® ELISA Kit (D6050) according to manufacturer's instructions.

TMD8 cells [7] = test: IL-6 assay (ELISA of supernatant); type: cell-based; settings: for Inhibition of IL-6 production: TMD8 cells, CD79 mutant, 48 hours
Protocol: as §2, §3

[8] = 120 mg/kg BID, SCID mice with TMD8 tumors

Human PKC delta, sequence (Q05655 whole entry, canonical isoform): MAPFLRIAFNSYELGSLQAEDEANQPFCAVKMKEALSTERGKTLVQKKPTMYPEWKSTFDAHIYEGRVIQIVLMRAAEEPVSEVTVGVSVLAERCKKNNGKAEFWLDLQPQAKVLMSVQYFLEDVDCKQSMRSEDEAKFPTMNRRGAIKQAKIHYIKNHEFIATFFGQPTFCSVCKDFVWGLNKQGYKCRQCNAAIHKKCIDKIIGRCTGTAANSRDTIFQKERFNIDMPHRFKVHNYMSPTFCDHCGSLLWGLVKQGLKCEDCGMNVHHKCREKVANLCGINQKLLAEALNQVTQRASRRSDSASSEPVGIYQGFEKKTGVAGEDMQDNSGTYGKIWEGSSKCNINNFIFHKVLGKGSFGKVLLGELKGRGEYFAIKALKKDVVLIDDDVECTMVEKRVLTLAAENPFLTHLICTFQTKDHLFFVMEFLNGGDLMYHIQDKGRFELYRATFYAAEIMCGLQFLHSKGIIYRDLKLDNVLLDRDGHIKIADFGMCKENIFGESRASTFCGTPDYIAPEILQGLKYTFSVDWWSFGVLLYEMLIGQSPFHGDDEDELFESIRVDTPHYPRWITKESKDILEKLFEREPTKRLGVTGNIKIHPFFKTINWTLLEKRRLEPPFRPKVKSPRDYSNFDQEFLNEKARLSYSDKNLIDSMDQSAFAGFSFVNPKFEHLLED

Compound	Inhibition of PKC delta (in words) (Human PKC delta)	Inhibition of IL-6 production (HBL1 cells [1])	Inhibition of cell proliferation and survival (OCI-Ly3 cells [2])	Potency in cell proliferation assay compared to sotrastaurin (TMD8 cells [3])	Inhibition of cell proliferation and survival (TMD8 cells [3])	Number of circulating lymphocytes (circulating lymphocytes)	Mean weight of vehicle treated group greater than Compound A treated animals (TMD8 cells [4]; 120 mg/kg BID) [g]	Body weight change from day 24-28 (TMD8 cells [4]; [8])	Body weight, first 10 days of treatment (TMD8 cells [4]; [8])	Tumor growth (in words) (TMD8 cells [4]; study days 20 to 28, 120 mg/kg BID)	Inhibition of cell proliferation and survival (HBL1 cells [5])	Inhibition of IL-6 production (OCI-Ly3 cells [6])	Potency in IL-6 assay compared to sotrastaurin (TMD8 cells [7])	Inhibition of IL-6 production (TMD8 cells [7])
Cc1ncc(F)c(Nc2n[nH]c3c2CN(C(=O)N2C[C@@H](C)N(CC4CCOCC4)C[C@@H]2C)C3(C)C)n1 [Compound A, 5-{[(2S,5R)-2,5-dimethyl-4-(tetrahydro-2H-pyran-4-ylmethyl)piperazin-1-yl]carbonyl}-N-(5-fluoro-2-methylpyrimidin-4-yl)-6,6-dimethyl-1,4,5,6-tetrahydropyrrolo[3,4-c]pyrazol-3-amine]	does not inhibit PKC delta to any appreciable degree	dose-dependent inhibition	not affected by either compound except at the highest doses tested	modestly more potent	dose-dependent inhibition	dose dependent increase	1.8	no increase in body weight	steady, slow increase	no appreciable amounts of tumor growth	dose-dependent inhibition	not affected	slightly more potent	dose-dependent inhibition
CN1CCN(c2nc(C3=C(c4c[nH]c5ccccc45)C(=O)NC3=O)c3ccccc3n2)CC1 [sotrastaurin, reference compound]	–	–	not affected by either compound except at the highest doses tested	–	dose dependent inhibition	–	–	–	–	–	–	not affected	–	dose dependent inhibition
